Results from article PMC5803267, “A small molecule inhibitor of Rheb selectively targets mTORC1 signaling” (Nature Communications, 2018).

How the values were obtained:
[1] = test system: mTORC1 activity (S240/244pS6) in kidney; experiment: PD study: feeding-induced mTORC1 activation in kidney; assay type: in vivo, mouse; conditions: mice fasted 16 h, 30 mg kg^−1 IP, re-fed 2 h
Experimental: The selective inhibition of mTORC1 activation by NR1 in vitro and in cell-based systems prompted us to evaluate the effect of this compound on mTORC1 activity in vivo. […] In particular, the plasma concentration of NR1 was sustained over 5 µM for 2 h after IP administration of a 30 mg kg^−1 dose (Supplementary Fig. 10). We therefore carried out a pharmacodynamic (PD) study to evaluate the efficacy of NR1 at inhibiting mTORC1 signaling in vivo. In this experiment, mice were starved overnight to achieve a low basal level of mTORC1 activation (pre-dose). After a 16 h fast, the animals were treated with either vehicle or 30 mg kg^−1 NR1 and allowed to re-feed for 2 h before sacrifice and tissue collection. mTORC1 activity was measured by quantification of ^S240/244pS6 by Western blot analysis with a specific antibody. […]
This study was conducted in accordance with the requirements for the humane care and use of animals set forth in the Animal Welfare Act, the IACUC Guide for the Care and Use of Laboratory Animals, applicable Shanghai and state laws, and regulations and policies of Shanghai ChemPartner Ltd. The animals were not randomized, and the study was not blinded. […] Compound levels in the plasma of treated mice were measured by LC-MS/MS and compared to a standard curve of compound diluted into mouse plasma. […]

[2] = molecular target: T1, FLAG-Rheb / myc-mTOR interaction (Homo sapiens, UniProt Q15382); experiment: Co-immunoprecipitation of overexpressed FLAG-Rheb and myc-mTOR; assay type: cell-based; conditions: review-only material
T1 construct: expressed in transfected cells
Excerpt: Response: We agree with Reviewer 2 and have included a brief discussion on the potential effects of chronic Rheb inhibition in the discussion section (p. 25).
“As with any new pharmacological agent, the anticipated side effects will need to be considered. The only data available from the literature that may help in understanding the potential side-effects of reducing Rheb activity come from genetic knock-out studies which, because of their inherent impacts on developmental and other effects, cannot be directly related to what might be expected following pharmacological inhibition. Thus, careful development of a novel Rheb inhibitor would have to take into account the potential organ systems that may be impacted, such as neurological63, 64 and […]
Below is a list of concerns that would need to be addressed in order for this work to be considered for publication in Nature Communications.
1. The authors state that it is “conceivable that portions of NR1 positioned outside the Rheb binding pocket sterically block the interaction with mTORC1. Given that the authors have access to recombinant Rheb and mTOR protein, it is unclear why there is no direct evidence that NR1 can inhibit their interaction. Alternatively, the effects of NR1 on Rheb-mTOR interactions could be shown in cells through co-IP. […]

T1 sequence (Q15382 1-181 limits assumed): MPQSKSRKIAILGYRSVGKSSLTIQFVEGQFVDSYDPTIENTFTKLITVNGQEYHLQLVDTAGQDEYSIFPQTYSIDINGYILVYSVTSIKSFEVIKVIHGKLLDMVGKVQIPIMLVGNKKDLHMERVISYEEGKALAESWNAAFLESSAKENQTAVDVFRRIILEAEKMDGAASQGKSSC

CN(C)C(=O)c1ccc(Cn2c(C(=O)O)cc3c(Br)cc(Sc4ccc(Cl)c(Cl)c4)cc32)cc1 [NR1, 4-bromo-6-(3,4-dichlorophenylthio)-1-(4-(dimethylcarbamoyl)benzyl)-1H-indole-2-carboxylic acid]
mTORC1 activity (S240/244pS6) in kidney versus vehicle [1]: significantly reduced mTORC1 activity | Rheb-mTOR interaction [2]: does not modulate
